Data as given in patent US20230233617A1, “METHODS FOR DIFFERENTIATING STEM CELLS INTO DOPAMINERGIC PROGENITOR CELLS” (JZ CELL TECHNOLOGIES AB, priority 2020, published 2023).

Legend:
[1] = tested on: hESCs; assay: Conversion of hPSCs into NSCs (OCT4, SOX1, PAX6 expression) in dSMADi cultures; assay type: cell-based, human
Description: To explore the activities of RA on hESCs directed to adopt a neural fate in response to dSMADi^14, we treated cultures with 200 nM all-trans RA for the first 1, 2, 3 or 4 days of differentiation (RA^1D, RA^2D, RA^3D, RA^4D) (FIG. 1a) and monitored fate and identity of cells at different stages by immunoblotting, quantitative immunocytochemistry, qPCR or RNA-sequencing (RNA-seq). […] Induction of SOX1 and PAX6 at low levels occurred at 3 DDC (FIG. 1b). OCT4 and SOX1 were co-expressed by cells between 3-4 DDC (FIG. 1b, c; FIG. 7a (Supplementary FIG. 1a)) showing that the conversion of hPSCs into NSCs in response to dSMADi-treatment encompass a protracted time-window over which expression of pluripotency- and neural-specific genes overlap. […] By 7 DDC, SOX1 and neural marker NESTIN were expressed at similar levels in dSMADi-only and in dSMADi+RA^2D cultures (FIG. 1d). […] Endodermal or mesodermal lineage markers were not expressed (FIG. 7b (Supplementary FIG. 1b)). In dSMADi+RA^2D conditions, prompt suppression of OCT4 and fast upregulation of SOX1 was attained within a concentration range of RA between 50-500 nM (FIG. 1g). […] Thus, combining dSMADi treatment with exposure of hPSCs to RA for 48 hours or longer promotes a rapid and switch-like transition from pluripotency into a NSC-state.
80-90% confluent PSCs cultures were rinsed twice with PBS, treated with EDTA (0.5 mM in PBS) for 5-7 min, and resuspended into single cell suspension in PBS. Cells were spin down at 400 g and resuspended in N2B27 medium (DMEM/F12: Neurobasal (1:1), 0.5×N2 and 0.5×B27 (plus vitamin A) supplements, 1×nonessential amino acids, 1% GlutaMAX, 55 μM β-mercaptoethanol-all from Thermo Fisher Scientific) containing 5 μM SB431542 (Miltenyi Biotech) and 2.5 μM DMH1 (Santa Cruz Biotech) (dual SMAD inhibition), and 10 μM ROCK inhibitor (for the first 48 hours after seeding). Cells were seeded on VTN (2 μg/cm^2) and Fibronectin (FN) (2 μg/cm^2) (Sigma) coated surface at a density of 60,000-80,000 cells/cm^2 for RA- and RA-analogues based experiments, and 20,000 cells/cm^2 for CHIR99021 experiments. […]

[2] = tested on: hPSC-derived NSCs; assay: Regional identity of hPSC-derived NSCs at 9 DDC after RA pulse in dSMADi conditions; assay type: cell-based, human
Description: Cells were fixed for 12 min at room temperature (RT) in 4% paraformaldehyde in PBS, rinsed 3 times in PBST (PBS with 0.1% Triton-X100), and blocked for 1 hour at RT with blocking solution (3% FCS/0.1% Triton-X100 in PBS). Cells were then incubated with primary antibodies overnight at 4° C., followed by incubation with fluorophore-conjugated secondary antibodies for 1 hour at RT. Both primary and fluorophore-conjugated secondary antibodies were diluted in blocking solution. Primary antibodies used are listed in Supplementary Table 1. Appropriate Alexa (488, 555, 647)-conjugated secondary antibodies (Molecular Probes) were used.

[3] = tested on: hPSC-derived NSCs; assay: Ventral regional identity of hPSC-derived NSCs at 9 DDC in dSMADi+SAG conditions (NKX2.1, LMX1A, PHOX2B, NKX2.2); assay type: cell-based, human; conditions: 9 DDC
[4] = tested on: CYP26; conditions: cited from earlier work

CC1=C(/C=C/C(C)=C/C=C/C(C)=C/C(=O)O)C(C)(C)CCC1 [RA, all-trans retinoic acid]
rapid OCT4 suppression and fast upregulation of SOX1 ([1]; 200 nM RA for one day (dSMADi+RA^1D)): not sufficient to promote rapid OCT4 suppression nor fast upregulation of SOX1
OCT4 expression ([1]; dSMADi and 200 nM RA for two days or longer): expression of OCT4 had essentially been extinguished by 3 DDC
concentration range of RA giving prompt suppression of OCT4 and fast upregulation of SOX1 ([1]; dSMADi+RA^2D, 3 DDC): 50 to 500 nM
regional identity of NSCs ([2]; 200 nM RA for 1 day (RA^1D)): FB-like character
regional identity of NSCs ([2]; 200 nM RA for 2 days (RA^2D)): FOXG1^−/OTX2^+/HOXA2^− MB-like character
regional identity of NSCs ([2]; 200 nM RA for 3 days (RA^3D)): FOXG1^−/OTX2^−/HOXA2^+/HOXB4^− rostral HB
regional identity of NSCs ([2]; 200 nM RA for 4 days (RA^4D)): FOXG1^−/OTX2^−/HOXA2^+/HOXB4^+ caudal HB
ventral identity of NSCs ([3]; RA^1D+SAG): expressed the FB-specific markers FOXG1, SIX3, SIX6, and LHX2
identity of NSCs ([3]; RA^2D+SAG, 100 nM or 800 nM RA): LMX1A^+/NKX2.1^− NSCs were generated but at lower numbers
RA concentration at which the vast majority of NSCs expressed LMX1A+/NKX2.1− vMB-identity ([3]; RA^2D+SAG): 200 to 400 nM
ventral identity of NSCs ([3]; RA^2D+SAG): LMX1A^+/LMX1B^+/FOXA2^+/OTX2^+ identity characteristic of vMB mDA neuron progenitors
ventral identity of NSCs ([3]; RA^3D+SAG or RA^4D+SAG): expressed HOX genes and the ventral markers NKX2.2, PHOX2B, NKX6.1, and NKX6.2 typical of cranial motor neuron (MN) progenitors of the HB
time at which the 48 hour RA-pulse must be initiated for effective induction of vMB NSC identity ([3]; dSMADi+SAG): 0-2 DDC
susceptibility to CYP26-mediated oxidation [4]: substrates for CYP26-mediated oxidation
